What is called Kd is a measure of binding affinity in units of concentration. The Ki is a dissociation constant, usually derived from enzyme kinetics or from competition with a known ligand.

Structures can show the parent of a compound that is named as a salt.

Assay [1] addresses T1, 4-aminobutyrate aminotransferase, mitochondrial (Sus scrofa, UniProt P80147). Briefly: The Dissociation Constant for Gamma-amino-N-butyrate transaminase.
Assay [2] addresses 4-aminobutyrate aminotransferase, mitochondrial (Sus scrofa) (UniProt P80147). Briefly: The Reactivation Kinetic Constant for Gamma-amino-N-butyrate transaminase.
For assay [3] the target is unchanged. Briefly: Inhibitory rate constant against Gamma-amino-N-butyrate transaminase.
Assay [4] has the same target. Briefly: Dissociation constant of the Gamma-amino-N-butyrate transaminase.
Assay [5] deals with T1, 4-aminobutyrate aminotransferase, mitochondrial. Briefly: Inhibitory activity against Gamma-amino-N-butyrate transaminase.

T1 sequence (P80147 whole entry): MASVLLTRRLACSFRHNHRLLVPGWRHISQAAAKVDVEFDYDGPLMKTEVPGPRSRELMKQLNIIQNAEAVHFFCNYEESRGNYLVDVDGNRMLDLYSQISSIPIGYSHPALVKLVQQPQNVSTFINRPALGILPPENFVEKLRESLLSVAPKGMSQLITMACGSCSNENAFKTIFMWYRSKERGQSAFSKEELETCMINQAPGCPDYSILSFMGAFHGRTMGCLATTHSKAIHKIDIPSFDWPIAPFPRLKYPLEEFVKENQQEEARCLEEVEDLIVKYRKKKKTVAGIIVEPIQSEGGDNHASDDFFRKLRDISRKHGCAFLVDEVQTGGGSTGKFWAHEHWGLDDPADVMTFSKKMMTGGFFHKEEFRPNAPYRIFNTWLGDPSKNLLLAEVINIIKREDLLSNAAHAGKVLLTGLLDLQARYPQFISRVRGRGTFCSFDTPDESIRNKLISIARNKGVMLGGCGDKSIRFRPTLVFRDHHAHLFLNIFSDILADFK
4-aminobutyrate aminotransferase, mitochondrial (Sus scrofa), sequence (P80147 whole entry): as above

On to `NNCCC(=O)O`, for which, in assay [1], the Kd is below 20 nM. The Kreact in assay [2] stood at 0.0069 min⁻¹.

Turning to `NNCc1cccc(O)c1` [3-HYDROXYBENZYLHYDRAZINE DIHYDROCHLORIDE], the K3 in assay [3] worked out at 330 M⁻¹ s⁻¹. This compound returned a K4 in assay [4] of 0.005 min⁻¹. This compound yielded a Kd in assay [1] of 460 nM. In assay [5], this compound yielded a Ki of 300 nM. In assay [2], this compound displayed a Kreact of 0.02 min⁻¹.

In turn, `CNN` [METHYLHYDRAZINE] yielded a K3 in assay [3] of 34.7 M⁻¹ s⁻¹. The same compound had a K4 in assay [4] of 0.0046 min⁻¹. The compound also gave a Kd in assay [1] of 2800 nM. The same compound came in with a Ki in assay [5] of 2200 nM. Besides, the Kreact in assay [2] was found to be 4 min⁻¹.

The record behind these values is ChEMBL document CHEMBL1129473, “Slow-binding inhibition of gamma-aminobutyric acid aminotransferase by hydrazine analogues” (J Med Chem, 1996).
